Measured values from patent publication US5466671A, “Apidaecin-type peptide antibiotics with improved activities and/or different antibacterial spectrum” (priority 1994, dated 1995).
Residues, ends and D or L forms follow the SMILES beside them. No end group written: not given here.

Tests used:
[1] = system: Escherichia coli (ATCC11775); experiment: Inhibition zone assay (agar plate); assay type: cell-based; conditions: agar plate, 50 nanomoles/well, 3 mm wells
Escherichia coli (K514) = assay type: cell-based; conditions: agar plate, 50 nanomoles/well, 3 mm wells
Enterobacter cloacae = experiment: Inhibition zone assay (agar plate); assay type: cell-based; conditions: agar plate, 50 nanomoles/well, 3 mm wells
Erwinia amylovora = experiment: Inhibition zone assay (agar plate); assay type: cell-based; conditions: agar plate, 50 nanomoles/well, 3 mm wells
Klebsiella pneumoniae = experiment: Inhibition zone assay (agar plate); assay type: cell-based; conditions: agar plate, 50 nanomoles/well, 3 mm wells
Salmonella typhimurium = experiment: Inhibition zone assay (agar plate); assay type: cell-based; conditions: agar plate, 50 nanomoles/well, 3 mm wells
Yersinia enterocolitica = experiment: Inhibition zone assay (agar plate); assay type: cell-based; conditions: 50 nanomoles/well, 3 mm wells
[2] = system: Agrobacterium tumefaciens; experiment: Inhibition zone assay (agar plate); assay type: cell-based; conditions: agar plate, 50 nanomoles/well, 3 mm wells
Francisella tularensis = assay type: cell-based; conditions: agar plate, 50 nanomoles/well, 3 mm wells
Pseudomonas syringae = experiment: Inhibition zone assay (agar plate); assay type: cell-based; conditions: agar plate, 50 nanomoles/well, 3 mm wells
Rhizobium meliloti = experiment: Inhibition zone assay (agar plate); assay type: cell-based; conditions: 50 nanomoles/well, 3 mm wells
Haemophilus influenzae = experiment: Inhibition zone assay (agar plate); assay type: cell-based; conditions: 50 nanomoles/well, 3 mm wells
E. coli Apid^R = experiment: Minimal inhibitory concentration (liquid culture); assay type: cell-based; conditions: a-b = highest concentration with growth - lowest without growth
Source text: For details see `Experimental Procedures`.

E. coli 11775 = experiment: Minimal inhibitory concentration (liquid culture); conditions: a-b = highest concentration with growth - lowest without growth
E. coli 23802 = experiment: Minimal inhibitory concentration (liquid culture); conditions: inoculum 5000 CFU/ml; a-b = highest concentration with growth - lowest without growth
E. coli 25922 = experiment: Minimal inhibitory concentration (liquid culture); conditions: inoculum 1100 CFU/ml; a-b = highest concentration with growth - lowest without growth
S. typhimurium = experiment: Minimal inhibitory concentration (liquid culture); conditions: inoculum 8 × 10^6 CFU/ml; a-b = highest concentration with growth - lowest without growth
A. calcoaceticus = experiment: Minimal inhibitory concentration (liquid culture); conditions: inoculum 16 × 10^6 CFU/ml; a-b = highest concentration with growth - lowest without growth
M. morganii = experiment: Minimal inhibitory concentration (liquid culture); conditions: inoculum 400 CFU/ml; a-b = highest concentration with growth - lowest without growth
Y. enterocolitica = experiment: Minimal inhibitory concentration (liquid culture); conditions: inoculum 5000 CFU/ml; a-b = highest concentration with growth - lowest without growth
Salmonella typhi = assay type: cell-based; conditions: agar plate, 50 nanomoles/well, 3 mm wells
[3] = system: Acinetobacter calcoaceticus; experiment: Inhibition zone assay (agar plate); assay type: cell-based; conditions: agar plate, 50 nanomoles/well, 3 mm wells

Compound	inhibition zone diameter (number of plus signs) [1]	inhibition zone diameter (number of plus signs) (Escherichia coli (K514))	inhibition zone diameter (number of plus signs) (Enterobacter cloacae)	inhibition zone diameter (number of plus signs) (Erwinia amylovora)	inhibition zone diameter (number of plus signs) (Klebsiella pneumoniae)	inhibition zone diameter (number of plus signs) (Salmonella typhimurium)	inhibition zone diameter (number of plus signs) (Yersinia enterocolitica)	inhibition zone diameter (number of plus signs) (Francisella tularensis)	inhibition zone diameter (number of plus signs) (Pseudomonas syringae)	inhibition zone diameter (number of plus signs) (Haemophilus influenzae)	minimal inhibitory concentration (MIC) (E. coli Apid^R; inoculum 12 × 10^6 CFU/ml)	minimal inhibitory concentration (MIC) (E. coli Apid^R; inoculum 1000 CFU/ml)	minimal inhibitory concentration (MIC) (E. coli 11775; inoculum 16 × 10^6 CFU/ml)	minimal inhibitory concentration (MIC) (E. coli 11775; inoculum 1200 CFU/ml)	minimal inhibitory concentration (MIC) (E. coli 23802)	minimal inhibitory concentration (MIC) (E. coli 25922)	minimal inhibitory concentration (MIC) (S. typhimurium)	minimal inhibitory concentration (MIC) (A. calcoaceticus)	minimal inhibitory concentration (MIC) (M. morganii)	minimal inhibitory concentration (MIC) (Y. enterocolitica)	also measured
CC(C)C[C@H](NC(=O)[C@H](CCCNC(=N)N)NC(=O)[C@@H]1CCCN1C(=O)[C@H](Cc1c[nH]cn1)NC(=O)[C@@H]1CCCN1C(=O)[C@@H]1CCCN1C(=O)[C@H](CCCNC(=N)N)NC(=O)[C@@H]1CCCN1C(=O)[C@H](C)NC(=O)[C@@H]1CCCN1C(=O)[C@@H](NC(=O)[C@H](Cc1ccc(O)cc1)NC(=O)[C@@H](NC(=O)[C@@H]1CCCN1C(=O)[C@H](CCCNC(=N)N)NC(=O)[C@@H](N)CC(N)=O)[C@@H](C)O)C(C)C)C(=O)O [Ck A, Asn--Arg--Pro--Thr--Tyr--Val--Pro--Ala--Pro--Arg--Pro--Pro--His--Pro--Arg--Leu] (H-NRPTYVPAPRPPHPRL-OH)	+++ ((+++) 10-14 mm)	++ ((++) 7-9 mm)	++ ((++) 7-9 mm)	+++ ((+++) 10-14 mm)	++ ((++) 7-9 mm)	+++ ((+++) 10-14 mm)	+++ ((+++) 10-14 mm)	+ ((+) 5-6 mm)	+++ ((+++) 10-14 mm)	++ ((++) 7-9 mm)	> 40 µg/mL	> 40 µg/mL	1 to 5 µg/mL	0.1 to 0.5 µg/mL	> 40 µg/mL	1 to 5 µg/mL	1 to 5 µg/mL	> 20 µg/mL	20 to 40 µg/mL	1 to 5 µg/mL	inhibition zone diameter (number of plus signs) [2]: ++++ ((++++) 15-19 mm); inhibition zone diameter (number of plus signs) (Rhizobium meliloti): ++++ ((++++) 15-19 mm)
CC(C)C[C@H](NC(=O)[C@H](CCCNC(=N)N)NC(=O)[C@@H]1CCCN1C(=O)[C@H](Cc1c[nH]cn1)NC(=O)[C@@H]1CCCN1C(=O)[C@@H]1CCCN1C(=O)[C@H](CCCNC(=N)N)NC(=O)[C@@H]1CCCN1C(=O)[C@@H]1CCCN1C(=O)[C@@H](NC(=O)[C@H](CCC(N)=O)NC(=O)[C@H](CCC(N)=O)NC(=O)[C@@H]1CCCN1C(=O)[C@H](CCCNC(=N)N)NC(=O)[C@@H]1CCCN1C(=O)[C@H](CCCCN)NC(=O)[C@H](CC(N)=O)NC(=O)[C@@H](N)CO)C(C)C)C(=O)O [Yj +S, Ser--Asn--Lys--Pro--Arg--Pro--Gln--Gln--Val--Pro--Pro--Arg--Pro--Pro--His--Pro--Arg--Leu] (H-SNKPRPQQVPPRPPHPRL-OH)	+++ ((+++) 10-14 mm)	++ ((++) 7-9 mm)	++ ((++) 7-9 mm)	+++ ((+++) 10-14 mm)	++ ((++) 7-9 mm)	+++ ((+++) 10-14 mm)	–	++ ((++) 7-9 mm)	++++ ((++++) 15-19 mm)	+++ ((+++) 10-14 mm)	10 to 20 µg/mL	1 to 5 µg/mL	0.1 to 0.5 µg/mL	0.1 to 0.5 µg/mL	0.5 to 1 µg/mL	0.1 to 0.5 µg/mL	0.1 to 0.5 µg/mL	2 to 10 µg/mL	0.5 to 1 µg/mL	1 to 5 µg/mL	inhibition zone diameter (number of plus signs) (Salmonella typhi): ++ ((++) 7-9 mm); inhibition zone diameter (number of plus signs) [3]: + ((+) 5-6 mm)
CC(C)C[C@H](NC(=O)[C@H](CCCNC(=N)N)NC(=O)[C@@H]1CCCN1C(=O)[C@H](Cc1c[nH]cn1)NC(=O)[C@@H]1CCCN1C(=O)[C@@H]1CCCN1C(=O)[C@H](CCCNC(=N)N)NC(=O)[C@@H]1CCCN1C(=O)[C@@H]1CCCN1C(=O)[C@@H](NC(=O)[C@H](CCC(N)=O)NC(=O)[C@H](CCC(N)=O)NC(=O)[C@@H]1CCCN1C(=O)[C@H](CCCNC(=N)N)NC(=O)[C@@H]1CCCN1C(=O)[C@H](CCCCN)NC(=O)[C@@H](N)CC(N)=O)C(C)C)C(=O)O [Yj -S, Asn--Lys--Pro--Arg--Pro--Gln--Gln--Val--Pro--Pro--Arg--Pro--Pro--His--Pro--Arg--Leu] (H-NKPRPQQVPPRPPHPRL-OH)	+++ ((+++) 10-14 mm)	–	++ ((++) 7-9 mm)	++++ ((++++) 15-19 mm)	++ ((++) 7-9 mm)	+++ ((+++) 10-14 mm)	++ ((++) 7-9 mm)	+ ((+) 5-6 mm)	++++ ((++++) 15-19 mm)	++ ((++) 7-9 mm)	5 to 10 µg/mL	5 to 10 µg/mL	0.1 to 0.5 µg/mL	0.1 to 0.5 µg/mL	1 to 5 µg/mL	0.1 to 0.5 µg/mL	0.1 to 0.5 µg/mL	2 to 10 µg/mL	1 to 5 µg/mL	1 to 5 µg/mL	inhibition zone diameter (number of plus signs) [3]: ++ ((++) 7-9 mm); inhibition zone diameter (number of plus signs) [2]: ++ ((++) 7-9 mm); inhibition zone diameter (number of plus signs) (Rhizobium meliloti): ++++ ((++++) 15-19 mm)
NRPTYVPPPRPPHPRL [Ck P]	+++ ((+++) 10-14 mm)	++ ((++) 7-9 mm)	+++ ((+++) 10-14 mm)	+++ ((+++) 10-14 mm)	++ ((++) 7-9 mm)	++++ ((++++) 15-19 mm)	+++ ((+++) 10-14 mm)	++ ((++) 7-9 mm)	++++ ((++++) 15-19 mm)	++ ((++) 7-9 mm)	> 40 µg/mL	> 40 µg/mL	1 to 5 µg/mL	0.1 to 0.5 µg/mL	20 to 40 µg/mL	0.5 to 1 µg/mL	1 to 5 µg/mL	> 20 µg/mL	> 40 µg/mL	1 to 5 µg/mL	inhibition zone diameter (number of plus signs) [2]: ++++ ((++++) 15-19 mm); inhibition zone diameter (number of plus signs) (Rhizobium meliloti): +++++ ((+++++) 20 or more min)
